Test results: ChEMBL document CHEMBL1201862, “PubChem BioAssay data set” (2004)
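Briefly, cells in 96-well plates were exposed to five compound concentrations for 48 h, and endpoints were estimated by linear interpolation. GI50 marks 50% less growth.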 Active and inactive are the calls of the source. Cut-off read from the data, not from the text of the source: active = GI50 up to about 1.1 µM and inactive = higher.

How the values were obtained:
Test in all cases: NCI tumour cell line growth inhibition, 48 h
786-0 = test system: 786-0
BT-549 = test system: BT-549
CAKI-1 = test system: CAKI-1
CCRF-CEM = test system: CCRF-CEM
HT-29 = test system: HT-29
KM12 = test system: KM12
MCF7 = test system: MCF7
MDA-MB-435 = test system: MDA-MB-435
MOLT-4 = test system: MOLT-4
NCI-H460 = test system: NCI-H460
OVCAR-4 = test system: OVCAR-4
SK-MEL-2 = test system: SK-MEL-2
SN12C = test system: SN12C
T47D = test system: T47D
A549 = test system: A549
SF-539 = test system: SF-539
NCI/ADR-RES = test system: NCI/ADR-RES
OVCAR-8 = test system: OVCAR-8
RXF 393 = test system: RXF 393

Structure (SMILES)	GI50 (786-0)	GI50 (BT-549)	GI50 (CAKI-1)	GI50 (CCRF-CEM)	GI50 (HT-29)	GI50 (KM12)	GI50 (MCF7)	GI50 (MDA-MB-435)	GI50 (MOLT-4)	GI50 (NCI-H460)	GI50 (OVCAR-4)	GI50 (SK-MEL-2)	GI50 (SN12C)	GI50 (T47D)	GI50 (A549)	GI50 (SF-539)	GI50 (NCI/ADR-RES)	GI50 (OVCAR-8)	GI50 (RXF 393)
COc1ccc(C2=NNC(c3cc4cc(Br)ccc4nc3Cl)C2)cc1 (stereo not given)	15.9 µM (inactive)	14.5 µM (inactive)	12.6 µM (inactive)	0.13 µM (active)	14.6 µM (inactive)	22.9 µM (inactive)	6.67 µM (inactive)	7.16 µM (inactive)	3.82 µM (inactive)	10 µM (inactive)	15.3 µM (inactive)	11.8 µM (inactive)	7.66 µM (inactive)	0.0887 µM (active)					
O=c1[nH]c2ccccc2c(=O)n1/N=C\c1ccccc1O	> 100 µM (inactive)	> 100 µM (inactive)	> 100 µM (inactive)	> 100 µM (inactive)	> 100 µM (inactive)	30.5 µM (inactive)	> 100 µM (inactive)	> 100 µM (inactive)	> 100 µM (inactive)	> 100 µM (inactive)		> 100 µM (inactive)	> 100 µM (inactive)	> 100 µM (inactive)	> 100 µM (inactive)	> 100 µM (inactive)			
CCOC(=O)C(NC(=O)c1ccccc1)(Nc1ccc(S(=O)(=O)Nc2cc(C)nc(C)n2)cc1)C(F)(F)F (stereo not given)	> 100 µM (inactive)		> 100 µM (inactive)	> 100 µM (inactive)	> 100 µM (inactive)	> 100 µM (inactive)	> 100 µM (inactive)	> 100 µM (inactive)	> 100 µM (inactive)	> 100 µM (inactive)	> 100 µM (inactive)	> 100 µM (inactive)	> 100 µM (inactive)	> 100 µM (inactive)	> 100 µM (inactive)	> 100 µM (inactive)	> 100 µM (inactive)	> 100 µM (inactive)	> 100 µM (inactive)
C[n+]1c2ccccc2c(C(=O)Nc2ccc(S(=O)(=O)N=C(N)N)cc2)c2ccccc21	> 100 µM (inactive)		> 100 µM (inactive)		> 100 µM (inactive)	> 100 µM (inactive)	> 100 µM (inactive)	> 100 µM (inactive)	25.5 µM (inactive)	> 100 µM (inactive)	> 100 µM (inactive)	> 100 µM (inactive)	> 100 µM (inactive)	> 100 µM (inactive)	> 100 µM (inactive)	> 100 µM (inactive)	> 100 µM (inactive)	> 100 µM (inactive)	
CCCCCCCCCCCCCCCCC1=CC(=O)C=C(OC)C1=O	47.2 µM (inactive)		> 100 µM (inactive)	29.4 µM (inactive)	> 100 µM (inactive)	69.2 µM (inactive)	> 100 µM (inactive)	> 100 µM (inactive)	> 100 µM (inactive)	34.4 µM (inactive)	> 100 µM (inactive)	> 100 µM (inactive)	44 µM (inactive)		89.5 µM (inactive)	47.3 µM (inactive)	95.5 µM (inactive)	49.3 µM (inactive)	37 µM (inactive)
c1ccc(COc2ccc(CC3SCCCS3)cc2)cc1			62.7 µM (inactive)	43.6 µM (inactive)	> 100 µM (inactive)		> 100 µM (inactive)	> 100 µM (inactive)	31.8 µM (inactive)	65.8 µM (inactive)	> 100 µM (inactive)			49.7 µM (inactive)	> 100 µM (inactive)			> 100 µM (inactive)	
Cc1cc(-c2nc3cc(F)c(F)cc3s2)ccc1N	> 65.2 µM (inactive)	> 100 µM (inactive)	> 45 µM (inactive)	> 35.6 µM (inactive)	> 61.1 µM (inactive)	> 69.2 µM (inactive)	< 0.0123 µM (active)	> 55.3 µM (inactive)	> 49.9 µM (inactive)	> 100 µM (inactive)	60.7 µM (inactive)	> 58.5 µM (inactive)	> 74.6 µM (inactive)	< 0.015 µM (active)	> 55.5 µM (inactive)		> 59.3 µM (inactive)	> 45.4 µM (inactive)	58.3 µM (inactive)
C=CCNc1ccc(C)cc1				> 100 µM (inactive)	> 100 µM (inactive)	> 100 µM (inactive)	> 100 µM (inactive)	> 100 µM (inactive)	> 100 µM (inactive)	> 100 µM (inactive)	> 100 µM (inactive)		> 100 µM (inactive)	> 100 µM (inactive)	> 100 µM (inactive)		> 100 µM (inactive)	> 100 µM (inactive)	> 100 µM (inactive)
Cc1cc(-c2ccc(C(=O)O)[nH]2)on1	51.4 µM (inactive)	> 100 µM (inactive)	79.1 µM (inactive)		27.1 µM (inactive)	> 100 µM (inactive)	39 µM (inactive)	6.98 µM (inactive)	> 100 µM (inactive)	40.6 µM (inactive)	> 100 µM (inactive)	88.5 µM (inactive)			34.8 µM (inactive)		24.9 µM (inactive)	61.4 µM (inactive)	74.8 µM (inactive)
OC1CCCC1C(O)(C(F)(F)F)C(F)(F)F (stereo not given)	> 100 µM (inactive)		> 100 µM (inactive)	> 100 µM (inactive)	> 100 µM (inactive)	> 100 µM (inactive)	> 100 µM (inactive)	> 100 µM (inactive)	> 100 µM (inactive)	> 100 µM (inactive)	> 100 µM (inactive)	> 100 µM (inactive)	> 100 µM (inactive)	> 100 µM (inactive)	> 100 µM (inactive)	> 100 µM (inactive)	> 100 µM (inactive)	> 100 µM (inactive)	> 100 µM (inactive)
C/C=C(/C)C(=O)O[C@@H]1c2c(C)coc2C[C@H]2CC[C@H](O)[C@H](C)[C@]21C			> 100 µM (inactive)	36.7 µM (inactive)	47.1 µM (inactive)	46.2 µM (inactive)	26.3 µM (inactive)	38.5 µM (inactive)	30.6 µM (inactive)	> 100 µM (inactive)	39.4 µM (inactive)		31.3 µM (inactive)	68.9 µM (inactive)		31.9 µM (inactive)	23.1 µM (inactive)	42.5 µM (inactive)	27 µM (inactive)
Nc1cc2c(cc1[N+](=O)[O-])[nH]c1c(-c3ccccc3)nccc12				7.71 µM (inactive)	14.5 µM (inactive)	15.8 µM (inactive)	26 µM (inactive)		4.43 µM (inactive)	15.8 µM (inactive)	12.8 µM (inactive)	20.2 µM (inactive)	22.3 µM (inactive)		17.4 µM (inactive)	24.4 µM (inactive)	14.1 µM (inactive)	30.8 µM (inactive)	19.9 µM (inactive)
O=C1CSSCC(=O)Nc2ccccc2N1	> 100 µM (inactive)	> 100 µM (inactive)	> 100 µM (inactive)	> 100 µM (inactive)	> 100 µM (inactive)	> 100 µM (inactive)		> 100 µM (inactive)	55.6 µM (inactive)	> 100 µM (inactive)	> 100 µM (inactive)	> 100 µM (inactive)	> 100 µM (inactive)	> 100 µM (inactive)	> 100 µM (inactive)	> 100 µM (inactive)	> 100 µM (inactive)	> 100 µM (inactive)	> 100 µM (inactive)
CCOC(=O)C1CC(O)C(=O)N1C (stereo not given)	> 100 µM (inactive)	> 100 µM (inactive)	> 100 µM (inactive)	> 100 µM (inactive)	> 100 µM (inactive)		> 100 µM (inactive)	> 100 µM (inactive)	> 100 µM (inactive)		> 100 µM (inactive)	> 100 µM (inactive)	> 100 µM (inactive)	> 100 µM (inactive)	> 100 µM (inactive)	> 100 µM (inactive)			> 100 µM (inactive)
CCc1nnc(-n2c(C)nc3cc(Cl)ccc3c2=O)s1	26.5 µM (inactive)	44.6 µM (inactive)	80.9 µM (inactive)	19.6 µM (inactive)	35.2 µM (inactive)	38.5 µM (inactive)	31.9 µM (inactive)	35 µM (inactive)	26.3 µM (inactive)	40.5 µM (inactive)	28.8 µM (inactive)		34.2 µM (inactive)	27.9 µM (inactive)	31 µM (inactive)		39.6 µM (inactive)	51.4 µM (inactive)	47.3 µM (inactive)
C=C(C)C(=O)O[C@@H]1C/C(C)=C\[C@H](OC(C)=O)C[C@](C)(O)/C=C2/OC(=O)C(COC(C)=O)=C21	1.09 µM (active)	1.37 µM (inactive)	0.329 µM (active)	0.0649 µM (active)	0.237 µM (active)	6.32 µM (inactive)	1.05 µM (active)	0.845 µM (active)	0.428 µM (active)	0.695 µM (active)	1.93 µM (inactive)	2.87 µM (inactive)	0.783 µM (active)	0.834 µM (active)	2.95 µM (inactive)	1.28 µM (inactive)		0.69 µM (active)	0.304 µM (active)
COc1ccc(C2=CC(c3ccccc3)n3nnnc3N2)cc1 (stereo not given)	> 100 µM (inactive)		> 100 µM (inactive)	> 100 µM (inactive)	> 100 µM (inactive)	> 100 µM (inactive)	> 100 µM (inactive)	> 100 µM (inactive)	> 100 µM (inactive)	> 100 µM (inactive)		> 100 µM (inactive)	> 100 µM (inactive)	56.9 µM (inactive)	> 100 µM (inactive)	> 100 µM (inactive)	> 100 µM (inactive)	> 100 µM (inactive)	> 100 µM (inactive)
